pIC50: −log10 of the molar value.

The pIC50 is the negative decadic logarithm of the IC50, by convention in mol/L.

The target of the assay is T1, PTP-1B (Homo sapiens, UniProt P18031).
T1 construct: PTP-1B (purified, 1 mg/mL) as a 1:250 dilution
T1 sequence (P18031 1-321 limits assumed): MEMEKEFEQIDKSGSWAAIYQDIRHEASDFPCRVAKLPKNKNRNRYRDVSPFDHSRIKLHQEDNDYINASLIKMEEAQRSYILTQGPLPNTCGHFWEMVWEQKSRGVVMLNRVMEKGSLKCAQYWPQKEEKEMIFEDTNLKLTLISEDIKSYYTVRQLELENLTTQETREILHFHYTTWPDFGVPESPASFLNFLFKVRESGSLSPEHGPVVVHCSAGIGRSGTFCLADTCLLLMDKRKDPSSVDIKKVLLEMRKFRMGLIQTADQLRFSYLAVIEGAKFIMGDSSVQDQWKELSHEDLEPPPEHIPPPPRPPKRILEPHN
In words: pNPP tyrosine phosphatase inhibition assay, PTP-1B. It counts as biochemical. The note with it: pNPP assay, PTP-1B; read-out: Activity Class (IC50 ranges). The method in brief: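 Test compounds were screened at two final levels, 31.3 and 10 µM, against 4 µg/mL purified PTP-1B. The substrate was 10 mM p-nitrophenyl phosphate, with incubation for 10 min at 30°C before a K2CO3 quench. Activity was taken from A405.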
Take `COc1ccccc1S(=O)(=O)N(Cc1ccc(-c2ccc(C#N)cc2)cc1)Cc1ccc(C(F)(F)P(=O)(O)O)c(Cl)c1` [Compound 155, [(2-Chloro-4-{[(4′-cyano-biphenyl-4-ylmethyl)-(2-methoxy-benzenesulfonyl)-amino]-methyl}-phenyl)-difluoro-methyl]-phosphonic acid]: the pIC50 was 6.60 to 7.00.

As to `N#Cc1cccc(-c2ccc(CN(Cc3ccc(C(F)(F)P(=O)(O)O)c(Cl)c3)S(=O)(=O)c3ccccc3Cl)cc2)c1` [Compound 163, [(2-Chloro-4-{[(2-chloro-benzenesulfonyl)-(3′-cyano-biphenyl-4-ylmethyl)-amino]-methyl}-phenyl)-difluoro-methyl]-phosphonic acid], the pIC50 is 6.60 to 7.00.

`COc1ccccc1S(=O)(=O)N(Cc1ccc(-c2ccc(-c3nn[nH]n3)cc2)cc1)Cc1ccc(C(F)(F)P(=O)(O)O)c(Cl)c1` [Compound 159, {[2-Chloro-4-({(2-methoxy-benzenesulfonyl)-[4′-(2H-tetrazol-5-yl)-biphenyl-4-ylmethyl]-amino}-methyl)-phenyl]-difluoro-methyl}-phosphonic acid]: the pIC50 is greater than 7.00.

For the compound `COC(=O)c1cccc(-c2ccc(CN(Cc3ccc(C(F)(F)P(=O)(O)O)c(Cl)c3)S(=O)(=O)c3ccccc3OC)cc2)c1` [Compound 145, 4′-{[[3-Chloro-4-(difluoro-phosphono-methyl)-benzyl]-(2-methoxy-benzenesulfonyl)-amino]-methyl}-biphenyl-3-carboxylic acid methyl ester], the pIC50 is 6.30 to 6.60.

Turning to `COc1ccccc1S(=O)(=O)N(Cc1ccc(C(=O)O)cc1)Cc1ccc(C(F)(F)P(=O)(O)O)c(Cl)c1` [Compound 233, 4-{[[3-Chloro-4-(difluoro-phosphono-methyl)-benzyl]-(2-methoxy-benzenesulfonyl)-amino]-methyl}-benzoic acid], the pIC50 is 6.60 to 7.00.

In the case of `COc1ccccc1S(=O)(=O)N(Cc1ccc(C(F)(F)P(=O)(O)O)c(Cl)c1)Cc1ccccc1OCCCC(C)C` [Compound 215, {[2-Chloro-4-({(2-methoxy-benzenesulfonyl)-[2-(4-methyl-pentyloxy)-benzyl]-amino}-methyl)-phenyl]-difluoro-methyl}-phosphonic acid], the pIC50 was 6.30 to 6.60.

Take `COc1ccccc1S(=O)(=O)N(Cc1ccc(C#N)cc1)Cc1ccc(NS(=O)(=O)C(F)(F)F)c(C(=O)O)c1` [Compound 139, 5-{[(4-Cyano-benzyl)-(2-methoxy-benzenesulfonyl)-amino]-methyl}-2-trifluoromethanesulfonylamino-benzoic acid]: the pIC50 was less than 4.60.

Consider `O=C(O)CCc1ccc(S(=O)(=O)N(Cc2ccc(Cl)c(Cl)c2)Cc2ccc(C(F)(F)P(=O)(O)O)c(Br)c2)cc1` [Compound 122, 3-{4-[[3-Bromo-4-(difluoro-phosphono-methyl)-benzyl]-(3,4-dichloro-benzyl)-sulfamoyl]-phenyl}-propionic acid], for which the pIC50 was 6.60 to 7.00.

On to `COC(=O)c1ccc(CN(Cc2ccc(C(F)(F)P(=O)(O)O)c(Cl)c2)S(=O)(=O)c2ccccc2)cc1` [Compound 234, 4-({Benzenesulfonyl-[3-chloro-4-(difluoro-phosphono-methyl)-benzyl]-amino}-methyl)-benzoic acid methyl ester], for which the pIC50 was 6.30 to 6.60.

On to “Methyl 2-(3-{4-[({[4-(difluorophosphonomethyl)-3-chlorophenyl]methyl}[(2-methoxyphenyl)sulfonyl]amino)methyl]phenyl}phenyl)acetate [Compound 191]”, for which the pIC50 is greater than 7.00.

Regarding `N#Cc1cccc(-c2ccc(CN(Cc3ccc(C(F)(F)P(=O)(O)O)c(Cl)c3)S(=O)(=O)c3ccc4ccccc4c3)cc2)c1` [Compound 154, [(2-Chloro-4-{[(3′-cyano-biphenyl-4-ylmethyl)-(naphthalene-2-sulfonyl)-amino]-methyl}-phenyl)-difluoro-methyl]-phosphonic acid], the pIC50 is 6.30 to 6.60.

As to “2-(3-{4-[({[4-(difluorophosphonomethyl)-3-chlorophenyl]methyl}[(2-methoxyphenyl)sulfonyl]amino)methyl]phenyl}phenyl)acetic acid [Compound 193]”, the pIC50 is greater than 7.00.

With `O=P(O)(O)C(F)(F)c1ccc(CN(Cc2ccc(C(F)(F)P(=O)(O)O)c(Br)c2)S(=O)(=O)c2ccc3ccccc3c2)cc1` [Compound 42, [(2-Bromo-4-{[[4-(difluoro-phosphono-methyl)-benzyl]-(naphthalene-2-sulfonyl)-amino]-methyl}-phenyl)-difluoro-methyl]-phosphonic acid], the pIC50 was greater than 7.00.

Turning to `O=[N+]([O-])c1ccc(CN(Cc2ccc(Cl)c(Cl)c2)S(=O)(=O)c2ccccc2Cl)cc1` [Compound 81, 2-Chloro-N-(3,4-dichloro-benzyl)-N-(4-nitro-benzyl)-benzenesulfonamide], the pIC50 is less than 4.60.

As for “{[4-(difluorophosphonomethyl)-3-chlorophenyl]methyl}[(2-methoxyphenyl)sulfonyl](3-piperidylmethyl)amine [Compound 209]”, the pIC50 was 4.60 to 5.60.

With `O=P(O)(O)C(F)(F)c1ccc(CN(Cc2ccc(C(F)(F)P(=O)(O)O)cc2)S(=O)(=O)c2cccc3ccccc23)cc1` [Compound 67, [(4-{[[4-(Difluoro-phosphono-methyl)-benzyl]-(naphthalene-1-sulfonyl)-amino]-methyl}-phenyl)-difluoro-methyl]-phosphonic acid], the pIC50 was 4.60 to 5.60.

Turning to `O=P(O)(O)C(F)(F)c1ccc(CN(Cc2ccccc2)Cc2ccc(C(F)(F)P(=O)(O)O)cc2)cc1` [Compound 65, {[4-({Benzyl-[4-(difluoro-phosphono-methyl)-benzyl]-amino}-methyl)-phenyl]-difluoro-methyl}-phosphonic acid], the pIC50 is less than 4.60.

For `COc1ccccc1S(=O)(=O)N(Cc1ccc(C(=O)O)cc1)Cc1ccc(-c2nnn[nH]2)cc1` [Compound 116, N-(4-[hydroxycarbonyl]-benzyl)-2-methoxy-N-[4-(1H-tetrazol-5-yl)-benzyl]-benzenesulfonamide], the pIC50 was less than 4.60.

With `CCNc1ccc(S(=O)(=O)C(F)(F)F)cc1NC(=O)C1CCN(S(=O)(=O)c2cccs2)CC1` [Compound 88, 1-(Thiophene-2-sulfonyl)-piperidine-4-carboxylic acid (2-ethylamino-5-trifluoromethanesulfonyl-phenyl)-amide], the pIC50 is less than 4.60.

For the compound `O=P(O)(O)C(F)(F)c1ccc(CN(Cc2ccc(C(F)(F)P(=O)(O)O)cc2)S(=O)(=O)c2ccc(Cl)cc2)cc1` [Compound 73, {[4-({(4-Chloro-benzenesulfonyl)-[4-(difluoro-phosphono-methyl)-benzyl]-amino}-methyl)-phenyl]-difluoro-methyl}-phosphonic acid], the pIC50 was 6.30 to 6.60.

In the case of `COc1ccccc1S(=O)(=O)N(Cc1ccc(-c2ccc(C(=O)O)c(F)c2)cc1)Cc1ccc(C(F)(F)P(=O)(O)O)c(Cl)c1` [Compound 177, 4′-{[[3-Chloro-4-(difluoro-phosphono-methyl)-benzyl]-(2-methoxy-benzenesulfonyl)-amino]-methyl}-3-fluoro-biphenyl-4-carboxylic acid], the pIC50 is greater than 7.00.

For the compound `O=P(O)(O)C(F)(F)c1ccc(CN(Cc2ccc(C(F)(F)P(=O)(O)O)cc2)S(=O)(=O)c2cccc(Oc3ccccc3)c2)cc1` [Compound 72, [(4-{[[4-(Difluoro-phosphono-methyl)-benzyl]-(3-phenoxy-benzenesulfonyl)-amino]-methyl}-phenyl)-difluoro-methyl]-phosphonic acid], the pIC50 is 6.30 to 6.60.

With `COc1ccccc1S(=O)(=O)N(Cc1ccc(-c2ccc(Cl)c(C(=O)NO)c2)cc1)Cc1ccc(C(F)(F)P(=O)(O)O)c(Cl)c1` [Compound 181, [(2-Chloro-4-{[(4′-chloro-3′-hydroxycarbamoyl-biphenyl-4-ylmethyl)-(2-methoxy-benzenesulfonyl)-amino]-methyl}-phenyl)-difluoro-methyl]-phosphonic acid], the negative-log IC50 (pIC50) was greater than 7.00.

In the case of “2,2-Dimethyl-propionic acid [(2-bromo-4-{[(4-methanesulfonyl-phenyl)-(2-methoxy-benzenesulfonyl)-amino]-methyl}-phenyl)-difluoro-methyl]-(2,2-dimethyl-propionyloxymethoxy)-phosphinoyloxymethyl ester [Compound 229]”, the negative-log IC50 (pIC50) is less than 4.60.

As to `CCOC(=O)c1cc(-c2ccc(CN(Cc3ccc(C(F)(F)P(=O)(O)O)c(Cl)c3)S(=O)(=O)c3ccccc3OC)cc2)ccc1Cl` [Compound 175, 4-Chloro-4′-{[[3-chloro-4-(difluoro-phosphono-methyl)-benzyl]-(2-methoxy-benzenesulfonyl)-amino]-methyl}-biphenyl-3-carboxylic acid ethyl ester], the pIC50 was 6.30 to 6.60.

On to `O=P(O)(O)C(F)(F)c1ccc(CN(Cc2ccc(C(F)(F)P(=O)(O)O)cc2)S(=O)(=O)C=Cc2ccccc2)cc1` [Compound 75, [(4-{[[4-(Difluoro-phosphono-methyl)-benzyl]-(2-phenyl-ethenesulfonyl)-amino]-methyl}-phenyl)-difluoro-methyl]-phosphonic acid], for which the pIC50 is 6.30 to 6.60.

In the case of `COc1ccccc1S(=O)(=O)N(Cc1ccc(C(F)(F)P(=O)(O)O)c(Cl)c1)Cc1ccccc1C` [Compound 167, [(2-Chloro-4-{[(2-methoxy-benzenesulfonyl)-(2-methyl-benzyl)-amino]-methyl}-phenyl)-difluoro-methyl]-phosphonic acid], the pIC50 was 6.30 to 6.60.
